The structures appear in SMILES notation. Several values for one entry are separate records, joined by “and”; a condition that tells them apart may be missing. Equal entries are not always repeated. Structures can show the parent of a compound that is named as a salt. Where two headings read alike, the source gives them in different places.

For data set [1] the following is noted: 0.3 mA cm^−2 for 4 hours; cited from earlier work.
The format of data set [2] is in vitro ADME. As to conditions: for permeation coefficient (Pc): 1 mg mL^−1 VAN; for accumulated concentration in wound tissue: 1 mg mL^−1 VAN loaded. As to the method: Investigations were also performed to determine the iontophoretic antibiotic delivery efficiency of the HIC-based biofilm treatment system 100 using high current intensities. These investigations included an ex vivo antibiotic delivery study using the same MRSA biofilm-infected porcine skin wound model as in the previous section. Vancomycin (VAN) was used here as a model drug, since it is the FDA-approved antibiotic and is the clinical gold standard for combating S. aureus infections.
First the VAN delivery efficiency was tested at different current intensities (from 0 mA cm^−2 (passive diffusion) to 75 mA cm^−2) applied by the HIC-based biofilm treatment system 100 for 1 hour. The drug/buffer chamber 114 of the working device 104 was loaded with 1 mg mL^−1 VAN in this study. The anode side was used as the working device 104 because VAN required anodal iontophoresis. The accumulated concentration of VAN in biofilm infected skin wound was measured immediately after iontophoresis using high performance liquid chromatography (HPLC). […] When 75 mA cm^−2 was used, the VAN concentration in wound tissue increased to 4.5±0.52 mg g^−1. The VAN concentration in wound tissue after passive diffusion, 0.5 mA cm^−2, and 19 mA cm^−2 iontophoresis were also measured. However, they could not be distinguished from the background interference of the residual biofilm components, so no quantitative results were obtained (data not shown). Importantly, the VAN concentration delivered by 75 mA cm^−2 iontophoresis for 1 hour exceeded the minimal biofilm eradication concentration (MBEC) of VAN reported for MRSA biofilm, which was 4 mg g^−1. The ability to deliver a lethal antibiotic concentration into biofilm-infected wounds within a short period of time was critical for biofilm treatment as it would minimize the chance for bacteria to develop adaptive tolerance.
The fetal pig skin samples (approximately 30×30 mm) were immersed in 10% (v/v) bleach for 5 minutes after hair removal. Then, skin samples were sterilized in 70% ethanol for 30 minutes. The surface of skin sample was further cleaned by 10% povidone-iodine and 70% isopropanol to prevent contamination. A 6-mm disposable biopsy punch was used to create an excisional wound. Samples were put into sterile 10-cm petri-dishes filled with sterile PBS (6 mL). The wound was then inoculated with 1×10^8 CFU mL^−1 MRSA bacteria solution (20 μL). The bacteria were allowed to grow in a 37° C. Heratherm™ compact microbiological incubator (ThermoFischer Scientific™, Waltham, Mass., USA) for 48 hours to form mature biofilms.
To evaluate the antibiotic delivery efficacy of VAN by high-intensity current, biofilm infected fetal pig skin wound was used. The DAP test setup was same as that of VAN, except no PBS chamber 122 was used. Instead, the inner surface of the skin wound contacted directly to the hydrogel 120 of the counter device 106. To evaluate the effect of electrical current intensity on the drug delivery efficacy, different current intensities from 0 to 75 mA cm^−2 were applied. To evaluate the effect of loading concentration of antibiotics, different concentrations of VAN and DAP from 1 mg mL^−1 to 10 mg mL^−1 were used. Since VAN is […] and DAP is negatively charged under physiological environment, anode HIC-based device was placed facing biofilm for VAN iontophoresis, and cathode HIC-based device was placed facing biofilm for DAP iontophoresis. Samples were collected immediately after different treatments. The concentrations of antibiotics delivered into skin wound samples were measured by high-performance liquid chromatography (HPLC). The permeation coefficient (Pc, cm s^−1) was then calculated (Pc=J/C, where J is antibiotic delivery flux in tissue samples (μg (cm^2s)^−1, C is the loading concentration of antibiotic solution (μg m L^−1)). […]

The next data set deals with MRSA biofilm. Particulars: cited from earlier work.
The test system of data set [3] is planktonic MRSA. The data set is described as follows: Time-killing test on planktonic MRSA in stationary phase. In kind it is cell-based, Methicillin-resistant S. aureus (MRSA) USA300. As to conditions: 10 mg mL^−1 VAN, 4-day incubation. As to the method:
(§1) MRSA bacteria was cultured in LB media in a 37° C. water shaking bath overnight to reach the concentration of 1×10^8 CFU mL^−1. Then, they were diluted to 10^5 CFU mL^−1 in 96-well plates by adding different concentrations of VAN solutions. After incubation for 24 hours without shaking, MIC of VAN to inhibit MRSA growth was measured by a Biotek Synergy H1 hybrid multi-mode microplate reader (BioTek, Winooski, Vt., USA) at OD600. To evaluate the killing time of VAN to bacteria in stationary phase (1×10^8 CFU mL^−1), VAN powder was added to bacteria solution to obtain concentration of 1 mg mL^−1, 3 mg mL^−1, 5 mg mL^−1, and 10 mg mL^−1, respectively, while remaining MRSA concentration of 1×10^8 CFU mL^−1. After incubation in a 37° C. water bath for 1 day, 2 days, 3 days and 4 days, the CFU of MRSA cells was tested by the standard plate spread counting assay, respectively. The time-killing tests of DAP with different concentrations (0.1 mg mL^−1, 0.5 mg mL^−1, 1 mg mL^−1, and 5 mg mL^−1) on MRSA planktonic cells were also performed, with the incubation time up to 24 hours.

The test system of data set [4] is planktonic MRSA. The data set is described as follows: Minimum inhibitory concentration (MIC) to planktonic MRSA. The class given is cell-based, Methicillin-resistant S. aureus (MRSA) USA300. Particulars: Staphylococcus aureus; planktonic MRSA cells, 24 hours, OD600. As to the method: Methicillin-resistant S. aureus (MRSA) USA300 strain was used in this study. The planktonic bacteria were cultured in LB medium. Vancomycin hydrochloride (Apexbio Technology LLC, Houston, Tex., USA) and daptomycin (Combi-Blocks, San Diago Calif., USA) were used to treat MRSA biofilm. The minimum inhibitory concentration (MIC) of vancomycin hydrochloride to planktonic MRSA cells was determined as 1.2 μg mL^−1 (see FIG. 17B), which was in consistent with the results reported previously.
as §1, with “The time-killing tests of DAP with different concentrations (0.1 mg mL^−1, 0.5 mg mL^−1, 1 mg mL^−1, and 5 mg mL^−1) on MRSA planktonic cells were also performed, with the incubation time up to 24 hours.” left out

The subject of a further data set is C. difficle. As to conditions: cited from earlier work.
For data set [5] the following is noted: conventional transdermal iontophoresis 0.31 mA cm^−2; cited from earlier work.

As for `CN[C@H](CC(C)C)C(=O)N[C@H]1C(=O)N[C@@H](CC(N)=O)C(=O)N[C@H]2C(=O)N[C@H]3C(=O)N[C@H](C(=O)N[C@H](C(=O)O)c4cc(O)cc(O)c4-c4cc3ccc4O)[C@H](O)c3ccc(c(Cl)c3)Oc3cc2cc(c3O[C@@H]2O[C@H](CO)[C@@H](O)[C@H](O)[C@H]2O[C@H]2C[C@](C)(N)[C@H](O)[C@H](C)O2)Oc2ccc(cc2Cl)[C@H]1O` [VAN, Vancomycin hydrochloride], in data set [1], the “amount delivered into the epidermis by iontophoresis vs passive diffusion” value was 2.1 times. In data set [2] (0.31 mA cm^−2 conventional vs 75 mA cm^−2 HIC), the “conventional Pc lower than Pc by 75 mA cm^−2 HIC iontophoresis” value turned out to be 980 times. In addition, the “permeation coefficient (Pc)” value in data set [2] (38 mA cm^−2, 1 hour) is 112.0±20.97 ×10^−6 cm s^−1; in data set [2] (75 mA cm^−2, 1 hour), 216.5±18.96 ×10^−6 cm s^−1; in data set [5], 2.21e+11 ×10⁻⁶ cm/s. The “accumulated concentration in wound tissue” value was 2.5 ± 0.32 mg/g in data set [2] (38 mA cm^−2, 1 hour); 4.5 ± 0.52 mg/g and 4.5 mg/g in data set [2] (75 mA cm^−2, 1 hour, hydrochloride). For the same molecule, the “concentration in wound tissue” value is “more than 16 mg g^−1” in data set [2] (75 mA cm^−2, 1 hour, 5 mg mL^−1 VAN loaded) and “more than 16 mg g^−1” in data set [2] (75 mA cm^−2, 1 hour, 10 mg mL^−1 VAN loaded). Besides, in the data set with MRSA biofilm, the “minimal biofilm eradication concentration (MBEC)” value was 4 mg/g. Besides, the “bacterial count after incubation (from 10^8 CFU g^−1)” value with planktonic MRSA [3] is given as 10^6 CFU g^−1. In the data set on planktonic MRSA [4], the minimal inhibitory concentration (MIC) amounted to 1.2 µg/mL. The “concentration at which antibacterial activity starts to decrease (paradoxical effect)” value in the data set with C. difficle is reported as 64 ×MIC.

As a reminder, the MIC is the least concentration at which growth counts as inhibited.

The record behind these values is US20240050735A1, “SYSTEMS AND METHODS FOR TREATING AND INHIBITING WOUND INFECTIONS” (priority 2020, published 2024).
